Experimental findings from US8247399B2, “Photoactive metal nitrosyls for blood pressure regulation and cancer therapy” (The Regents of the University of California, priority 2004, dated 2012) are described below.

For one series, the target named is T1, papain (Carica papaya, UniProt P00784).
T1 sequence (P00784 134-345): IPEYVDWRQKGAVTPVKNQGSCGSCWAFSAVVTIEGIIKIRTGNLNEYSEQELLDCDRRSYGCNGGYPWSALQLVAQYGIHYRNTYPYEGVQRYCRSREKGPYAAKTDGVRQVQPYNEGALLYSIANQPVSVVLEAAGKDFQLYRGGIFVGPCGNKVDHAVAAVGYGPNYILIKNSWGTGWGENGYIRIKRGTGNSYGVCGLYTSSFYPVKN
Briefly: Papain inhibition under light (l-BApNA substrate). Type of series: biochemical. Conditions: 3 mM nitrosyl 1 mL + papain 3 mg/mL 1 mL, 50 W tungsten lamp 3 min, 25° C., pH 6.2. The protocol: Twice-crystallized papain was activated by stirring the enzyme in 50 mM phosphate buffer (pH 6.2) containing 10 mM dithiothreitol (DTT) for 24 h. The solution was then passed through a Pharmacia 20 mL desalting column equipped with a BioRad FPLC absorbance/electrical-conducting detector at 4° C. The activated protein (devoid of DTT) eluted from the column in 2 minutes at a flow rate of 2 mL/min, and was subsequently lyophilized and stored at −20° C.
Papain activity was determined spectrophotometrically at 410 nm by monitoring the formation of p-nitroaniline from the substrate Nα-Benzoyl-l-arginine-p-nitroanilide (l-BApNA). A 1.5 mM stock solution of l-BApNA was prepared in 50 mM phosphate buffer (pH 6.2, 1 mM EDTA, 0.1 M NaCl) and stored at room temperature. A 4.6 μM stock solution of active papain was also prepared in 50 mM phosphate buffer (pH 6.2, 1 mM EDTA, 0.1 M NaCl) and stored at 0° C. Finally, a freshly prepared 3.0 mM stock solution of 1 was prepared in 50 mM phosphate buffer (pH 6.2, 1 mM EDTA, 0.1 M NaCl) and stored in the dark.
[…] The mixture was then exposed to a 50 W tungsten bulb (Afshar at al., Inorg Chem, 43:5736-5743, 2004) for 60 s and 350 μL of the substrate was quickly added. The residual enzyme activity was monitored at 25° C. […] After each exposure, 350 μL of the substrate was added to the solution and the residual enzyme activity was monitored at 25° C. […]

Series [1] in a line: Photorelease (photodissociation) of NO from the metal nitrosyl in solution under illumination. Type of series: physicochemical. Conditions: for type of light that releases NO: in DMF, UV-cut filters. The source says: FIG. 7(A) provides a plot of KNO values versus light power. Increase in A550 of a solution of [(PaPy3)Fe(NO)](ClO4)2 in MeCN upon illumination with a 60 W tungsten lamp (Patra et al., Inorg Chem, 42:6812-6823, 2003), KNO (×10^3 s^−1)=5.60±0.014.
FIG. 8(C) provides a plot of the electronic absorption spectrum of [(bpb)Ru(NO)(Cl)] (broken line) and [(Me2bqb)Ru(NO)(Cl)] (solid line) in DMF. Both nitrosyls are photolabile.
(§1) Dashed line: met-Mb; dash-dot line: reduced Mb; dotted line: a mixture of [(PaPy3)Ru(NO)](BF4)2 and reduced Mb (1.5:1) under ordinary light (20 min); solid line: same mixture exposed to UV (30 s). […] Dash-dot line: oxidized and dash line: reduced enzyme; dotted line: reduced enzyme plus [(PaPy3)Ru(NO)](BF4)2 under ordinary light (20 min); solid line: same mixture exposed to UV light for 30 s (Patra and Mascharak, Inorg Chem, 42:7363-7365, 2003, herein incorporated by reference).
As described herein, nitrosyls like [Fe(PaPy3)(NO)](CIO4)2 and [Mn(PaPy3)(NO)](BF4)2 are converted into the corresponding solvato species [M(PaPy3)(solv)]^2+ following NO loss. Clean isosbestic points in the multiple trace spectra (e.g., FIG. 6B and FIG. 6C) indicate that the [M(PaPy3)(NO)]^2+→[M(PaPy3)(solv)]^2+ transformation is likely devoid of other intermediates. […] Preliminary actinometric measurements have afforded a quantum yield of 0.12 for the light reaction of [Ru(PaPy3)(NO)](BF4)2 in water. Collectively, these properties indicate that the nitrosyl complexes disclosed herein are good light-induced NO donors.
The light characteristics of any one of these metal nitrosyls can be changed (tuned) with minor alterations in the ligand frames such as changing a donor atom or ring size. This is a tremendous advantage of the present approach, thereby freeing users of this technology from the light requirements of photoactive nitrosyls of the prior art, which hereto have been found serendipitously. […] (BF4)2 releases NO only under UV light (λ<350 nm).

Series [2] concerns rat aortic smooth muscle cells. Briefly: cGMP generation in cultured rat aortic smooth muscle cells. Type of series: cell-based. The protocol: Primary rat aortic smooth muscle cells were cultured and exposed to increasing log doses of Ru—NO with and without a 5 minute exposure to low-intensity UV light (λmax=254 nm) followed by a 10 minute incubation. The cells were then lysed and the cGMP production was assayed Cyclic GMP accumulation was measured using a commercially available ELISA kit (Amersham Biosciences) as per the manufacturer instructions.

The subject of another series is reduced cyt c oxidase. Briefly: Light-triggered NO transfer to reduced cytochrome c oxidase. Type of series: biochemical. Conditions: low intensity UV light 30 s. How it is done:
as §1
(§2) When this process is repeated in presence of reduced Mb, the 434 nm Soret band of reduced Mb is rapidly changed to 420 nm indicating formation of the Mb-NO adduct (FIG. 9B). Clearly [Ru(PaPy3)(H2O)](BF4)2 acts as an efficient NO donor that is activated by light. Similar results have been obtained with cytochrome c oxidase. Exposure of a mixture of [Ru(PaPy3)(H2O)](BF4)2 and reduced cytochrome c oxidase to UV light rapidly generated the NO adduct (Soret band at 428 nm, FIG. 9C). […] Other compounds according to the disclosure herein are known to, or are predicted to, have similar results with regard to being able to facilitate NO transfer to Mb and Hb.

In a further series the test system is rat aortic rings. Briefly: Relaxation of rat thoracic aorta rings precontracted with phenylephrine. Conditions: for concentration at which relaxation effect is shown: Ru-drug under UV light, DEA/NO control drug. The protocol: Male rats (200-250 g; Sprague-Dawley) were stunned and killed by cervical dislocation. The thoracic aortas were carefully removed, cleaned of connective tissue and cut into 3-4 ring segments of approximately 4 mm in length. Aortic rings were mounted in 10 mL organ baths containing Krebs-bicarbonate buffer (composition (mM): Na^+ 143; K^+ 5.9; Ca^2+ 2.5; Mg^2+ 1.2; Cl^− 128; HCO3^− 25; HPO4^2− 1.2; SO4^2− 1.2; D-glucose 11) maintained at 37° C. and gassed with 95% O2/5% CO2. Tension was initially set at 1 g and reset at intervals following an equilibrium period of 1 hour during which time fresh Krebs-bicarbonate buffer was replaced every 15-20 minutes. After equilibrium, the rings were primed with KCl (4.8×10^−2 M) before a supramaximal concentration of phenylephrine (PE; 10^−6 M) was added. Once this response had stabilized, acetylcholine (ACH; 10^−6M) was added to the bath to assess the integrity of endothelium of WT vessels. If the contractions to PE were not maintained, or relaxations greater than 50% of the PE-induced tone to ACH were not observed, the tissues were discarded.
Tissues were then washed for 30 minutes (by addition of fresh Krebs-bicarbonate buffer at 15 minutes intervals) after which cumulative concentrations of PE (10^−9-10^−6 M) were added to the organ bath. The tissues were then washed over 60 minutes to restore basal tone before contracting to approximately 80% of the maximum PE-induced response. Once a stable response to PE was achieved, cumulative concentration-response curves to the NO-donors were constructed in the presence and absence of light ([…]) and the soluble […] ODQ ([…]).

For the next series, the system named is reduced Mb. As to the kind of experiment: Light-triggered NO transfer to reduced myoglobin. It counts as biochemical. Conditions: aqueous solution, low intensity UV light 30 s, nitrosyl:Mb 1.5:1. How it is done: as §1, §2

Turning to [(PaPy3)Mn(NO)]ClO4, the “papain enzymatic activity after exposure” value at papain is recorded as “completely eliminating the enzymatic activity”.

With [(Me2bqb)Ru(NO)(Cl)], the “type of light that releases NO” value in series [1] was “releases NO upon illumination with visible light”.

On to [(PaPy3)Ru(NO)](BF4)2, for which the “increase in cGMP production” value in series [2] (0.1 mM, low-intensity UV light (λmax=254 nm) 5 min) is listed as 13 fold. Also, the “increase in cGMP concentration in the dark” value in series [2] (dark) is “not observed in the dark”. Further, the “formation of cyt c oxidase NO-adduct” value in the series with reduced cyt c oxidase is given as “conversion of reduced cyt c oxidase to its NO-adduct”. In the series on rat aortic rings, the “light dependence of relaxation effect” value is “only under exposure to light” and the “concentration at which relaxation effect is shown” value came out at 10 µM. Besides, the “relaxation compared with conventional NO donor” value in the series on rat aortic rings (UV light) was “comparable to that observed upon treatment of the tissue with a conventional NO donor (DEA/NO)”. For the same compound, the “contraction of tissue when the light was turned off” value in the series on rat aortic rings (light turned off) was about 25%. Besides, the “wavelength of light under which NO is released” value in series [1] is under 350 nm. The “quantum yield of the light reaction” value in series [1] (in water, preliminary actinometric measurements) is 0.12. Moreover, the “formation of Mb-NO adduct” value with reduced Mb is reported as “conversion of reduced Mb to Mb-NO”.

For `CCN(CC)/[N+]([O-])=N/[O-].[Na+]` [DEA/NO, reference compound], the “concentration at which relaxation effect is shown” value with rat aortic rings was found to be 0.01 µM.

As for [(bpb)Ru(NO)(Cl)], the “type of light that releases NO” value in series [1] is “releases NO upon illumination with UV light”.

For the compound [(PaPy3)Fe(NO)](ClO4)2, in series [1], the “wavelength of light under which NO is released” value was about 500 nm. Further, the “KNO (rate of NO loss)” value in series [1] (in MeCN, 60 W tungsten lamp) was 5.60±0.014 ×10^3 s^−1.
